Columns and labels:
[1] = system: VLBW infants; conditions: at age of 2 years; cited from earlier work
[2] = system: VLBL infants; conditions: supplementation with glutamine in VLBL infants; cited from earlier work
[3] = system: glutamine fed preterm group; test: fMRI neuronal activation later in life; assay type: in vivo, human
Excerpt: The improved brain development established at school age is indicative for improvement in neurocognitive functioning, behavioral and/or motional development, improving neuronal activation during interference task or during visuo-spatial working memory task, improvement of visuomotor skills (caterpillar-task).

[4] = system: VLBW infants; conditions: in the first year of life and at the age of 6; cited from earlier work
[5] = system: very preterm and/or VLBW children; test: Brain cortical volumes by MRI at school age after enteral glutamine supplementation, days 3-30 of life; assay type: in vivo, human
Experimental: (§1) A randomized, placebo controlled clinical trial was performed. For a detailed protocol of the study, see van den Berg et al, 2004, Glutamine-enriched enteral nutrition in very low birth weight infants. Design of a double-blind randomised controlled trial [ISRCTN73254583], BMC Pediatrics 4:17.
(§2) In short: Infants with a gestational age <32 weeks and/or birth weight <1500 g were enrolled. In total 52 very preterm and/or VLBW children, which had taken part in a randomized controlled trial on enteral glutamine supplementation between day 3 and 30 of life, participated in this follow up study at the mean age of 8.6 years (SD=0.3 years). 30 infants were in the control group and 22 in the glutamine supplementation group. Also comparisons were made with a control group (n=52) of term born infants.
(§3) The glutamine nutritional supplement was in powder form and contained 82 wt. % L-glutamine in total and 18 wt. % glucose (nitrogen 15.5 wt/wt %; 371 kcal/100 g), whereas the isonitrogenous control powder contained 100 wt. % L-alanine (nitrogen 15.7 wt/wt %, 435 kcal/100 g). The two powders were indistinguishable by appearance, colour and smell. Between days 3 and 30 of life, supplementation was administered in increasing doses to a maximum of 0.3 g/kg glutamine per day in the glutamine group. Initially, the supplementation dose was based on birth weight. After 2 weeks the dose was adjusted to actual body weight. Two members of the nursing staff daily added supplementation to breast milk or to preterm formula (Nenatal®, Nutricia Nederland B.V., Zoetermeer, The Netherlands), according to the parents' choice. Per 100 ml, Nenatal® provides 78 kcal, 2.1 g protein (casein-whey protein weight ratio 40:60), 4.4 g fat and 7.5 g carbohydrate. […] Protocol guidelines for the introduction of parenteral and enteral nutrition are disclosed in van den Berg et al., 2004.
(§4) All statistical analyses are performed on an intention to treat basis. In addition, alternative per protocol analyses are performed, excluding all patients who are not treated according to protocol, defined as more than 3 consecutive days or more than a total of 5 days on minimal enteral feeding or without supplementation. A p value<0.05 is considered significant (two-tailed). SPSS 9.0 (SPSS Inc., Chicago, Ill., USA) and STAT 7.0 (Stat-Corp LP, College Station, Tex., USA) are used for data analysis. A p value of 0.1 or below is considered to represent a realistic effect, a trend. Due to the small size of the groups also the effect size is taken into account. An effect size above 0.4 is considered to represent a trend.
Brain cortical volumes were determined by MRI and calculated using FSL software “FAST” and corrected for age at MM scan, gender and body weight for gestational age. […] This was the case for intracranial volume, grey matter, white matter and cerebellum volume.

[6] = system: very preterm and/or VLBW children; test: Brain subcortical volumes by MRI at school age after enteral glutamine supplementation, days 3-30 of life; assay type: in vivo, human
Experimental: as §1, §2, §3, §4
Brain subcortical volumes were determined by Mill and calculated using FSL software “FAST” and corrected for age at Mill scan, gender and body weight for gestational age. […] This was the case for the brain stem, thalamus, putamen, caudate nucleus, hippocampus, globus pallidum, amygdale, nucleus accumbens and the corpus callosum volume.

[7] = system: very preterm and/or VLBW children; test: Intellectual development, short form of WISC-III; assay type: in vivo, human; conditions: mean, sd 17.7, n=30; scores normalised with a mean of 100 (SD 15); p=0.12 versus control
Experimental: Intellectual development was measured in the same group of infants as example 1 by a short form of the Wechsler Intelligence Scale for Children-III (WISC-III), including the subtests Vocabulary and Block Design. […]. Both subtests correlate strongly (r 0.90) with full-scale intelligence quotient (FSIQ). Scores on this test were normalised with a mean of 100 (SD 15). There was a trend (p=0.12 when adjusted for gestational age and socioeconomic status) in improved IQ (WISC-III FSIQ being 102, sd 17.7, n=30) in the glutamine group compared to the control group (WISC-III FSIQ 93.6 sd 17.2 n=34).

[8] = glutamine supplemented versus control preterm group
[9] = mean, MRI at mean age 8.6 years, max 0.3 g/kg glutamine per day, days 3-30 of life
[10] = mean, MRI at mean age 8.6 years

In the case of NC(=O)CC[C@H](N)C(=O)O [Glutamine, L-glutamine], the Neurodevelopment outcome [1] is listed as “no effect”, the Infectious morbidity [2] is listed as “lowers” and the “Neuronal activation (fMRI)” value [3] is listed as “more similar to term infants”. The “Risk for atopic dermatitis” value [4] was “decreases”, the “Effect size, cerebellum” value ([5]; control versus glutamine group) was 0.41 and the “Effect size, grey matter” value ([5]; control versus glutamine group) was 0.29. For the same compound, the “Effect size, intracranial volume” value ([5]; control versus glutamine group) was 0.48, the “Effect size, white matter” value ([5]; control versus glutamine group) was 0.54 and the “Cerebellum volume compared with preterm control group” value [5, 8] was “tendency for an increase”. For the same compound, the “Cortical brain volumes compared with preterm control group” value [5, 8] was “higher than in the control group”, the “Intracranial volume compared with preterm control group” value [5, 8] was “tendency for an increase” and the “White matter volume compared with preterm control group” value [5, 8] was “significantly higher”. The Cerebellum volume [5, 9] was 110.89 cm^3, the Grey matter volume [5, 9] was 727.4 cm^3 and the Intracranial volume [5, 9] was 1649.8 cm^3. For the same compound, the White matter volume [5, 9] was 496.5 cm^3, the “Effect size, amygdala” value ([6]; control versus glutamine group) was 0.46 and the “Effect size, brain stem” value ([6]; control versus glutamine group) was 0.54. For the same compound, the “Effect size, caudate nucleus” value ([6]; control versus glutamine group) was 0.10, the “Effect size, corpus callosum” value ([6]; control versus glutamine group) was 0.18 and the “Effect size, globus pallidum” value ([6]; control versus glutamine group) was 0.48. For the same compound, the “Effect size, hippocampus” value ([6]; control versus glutamine group) was 0.47, the “Effect size, nucleus accumbens” value ([6]; control versus glutamine group) was 0.04 and the “Effect size, putamen” value ([6]; control versus glutamine group) was 0.55. For the same compound, the “Effect size, subcortical structures” value ([6]; control versus glutamine group) was 0.50, the “Effect size, thalamus” value ([6]; control versus glutamine group) was 0.39 and the “Brain stem volume compared with preterm control group” value [6, 8] was “significantly higher”. For the same compound, the “Hippocampus volume compared with preterm control group” value [6, 8] was “significantly higher”, the “Subcortical volume compared with preterm control group” value [6, 8] was “higher” and the Amygdala volume [6, 10] was 2.3 cm^3. The Brain stem volume [6, 10] was 18.9 cm^3, the “Caudate Nucleus volume” value [6, 10] was 7.4 cm^3 and the Corpus callosum [6, 10] was 535.7 mm^2. The “Globus Pallidum volume” value [6, 10] was 3.5 cm^3, the Hippocampus volume [6, 10] was 7.2 cm^3 and the Nucleus accumbens volume [6, 10] was 1.0 cm^3. It also gave a Putamen volume [6, 10] of 10.9 cm^3, a Subcortical structures volume [6, 10] of 66.5 cm^3 and a Thalamus volume [6, 10] of 15.3 cm^3. For the same compound, the “WISC-III FSIQ” value [7] was 102.
